Test: Blood levels of T3 after intraperitoneal administration in mice
Format: in vivo
Procedure: This T3-nanoparticle is administered intraperitoneally in mice.

- amount of T3 remaining in the blood over time (intraperitoneal, FIG. 8A): A lesser amount of T3 remains over time
Compound: N[C@@H](Cc1cc(I)c(Oc2ccc(O)c(I)c2)c(I)c1)C(=O)O [free T3, triiodothyronine]
- T3 blood levels (intraperitoneal injection, FIG. 8B): increased T3 blood levels which were followed by a subsequent leveling off

— US9381255B2, “Formulations comprising T3 nanoparticles” (Avant Garde Therapeutics and Technologies LLC, priority 2009, dated 2016)
